Laboratory results: ChEMBL document CHEMBL1641395, “Highly brominated antimicrobial metabolites from a marine Pseudoalteromonas sp” (J Nat Prod, 2010)

Tested on: Staphylococcus aureus
Experiment: Antibacterial activity against methicillin-resistant Staphylococcus aureus ATCC 43300 after 12 hrs by Broth microdilution method
Format: functional, organism-based
Details: ATCC 43300, 12 h

Row | Compound | IC50
1 | Brc1cc(Br)c2oc3c(Br)c(Br)[nH]c3c2c1 | 1.93 µM
2 | Oc1ccc(Br)cc1-c1cc(Br)cc(Br)c1O | 2.19 µM
3 | Oc1c(Br)cc(Br)cc1-c1cc(Br)cc(Br)c1O [BROMOPHENE] | 2.14 µM
4 | Oc1c(Br)cc(Br)cc1-c1[nH]c(Br)c(Br)c1Br [PENTABROMOPSEUDILIN] | 0.1 µM
5 | CN[C@H](CC(C)C)C(=O)N[C@H]1C(=O)N[C@@H](CC(N)=O)C(=O)N[C@H]2C(=O)N[C@H]3C(=O)N[C@H](C(=O)N[C@H](C(=O)O)c4cc(O)cc(O)c4-c4cc3ccc4O)[C@H](O)c3ccc(c(Cl)c3)Oc3cc2cc(c3O[C@@H]2O[C@H](CO)[C@@H](O)[C@H](O)[C@H]2O[C@H]2C[C@](C)(N)[C@H](O)[C@H](C)O2)Oc2ccc(cc2Cl)[C@H]1O [VANCOMYCIN] | 0.91 µM
